Reference: patent US11970498B2, “CDK2 inhibitors” (BLUEPRINT MEDICINES CORPORATION, priority 2021, dated 2024)

Key:
CDK2/Cyclin E = CDK2/Cyclin E (Homo sapiens, UniProt P24941); test: CDK2/Cyclin E biochemical phosphorylation assay (Caliper mobility shift); conditions: apparent IC50; 1.0 mM ATP or ATP Km; 1.25 nM enzyme; 25° C.; read-out: CDK2/cyclin E1 IC50
Description: (§1) Inhibitory effects of the compounds of the disclosure were measured in biochemical assays that measure the enzymatic phosphorylation activity of CDK enzyme in complex of Cyclin proteins phosphorylates 7.5 micromolar fluorescently labelled peptide substrate, 5-FAM-QSPKKG-CONH2, (FL-Peptide 18, Perkin Elmer, 760362) in the presence of adenosine-5′-triphosphate (ATP) and varying concentrations of the test compound in 100 mM 2-[4-(2-hydroxyethyl)piperazin-1-yl] ethanesulfonic acid (HEPES), pH 7.5, 10 mM MgCl2, 0.015% Brij-35, 1 mM dithiothreitol (DTT), 1.0% dimethylsulfoxide (DMSO). Assays were performed at 1.0 mM ATP or at ATP Km of the CDK enzymes in complex with Cyclin proteins. Reactions proceeded until between 10% to 20% total peptides were phosphorylated at room temperature (25° C.) and were terminated with 35 mM 2,2′,2″,2′″-(ethane-1,2-diyldinitrilo)tetraacetic acid (EDTA). Product was detected using the Caliper mobility shift detection method where the phosphorylated peptide (product) and substrate were electrophoretically separated and measured. Percent activity was plotted against log concentration of compound and points to generate an apparent IC50. The following CDK enzymes in complex with different cyclin proteins were used in these assays: • CDK1/Cyclin B1, GST-tag (BPS, 40454), 1.5 nM used in the assay • CDK2/Cyclin E (Eurofins, 14-475), 1.25 nM used in the assays
(§2) For inhibitory activity against CDK2/Cyclin E mutant, the following designations are used: ≤10 nM=A; >10-20 nM=B; >20-30 nM=C; >30-100 nM=D and >100=E. For inhibition CDK1/Cyclin B1, GST-tag: ≥500 nM=A; <100-500 nM=B; <100 nM=C.

CDK1/Cyclin B1, GST-tag = molecular target: T1, CDK1/Cyclin B1, GST-tag (Homo sapiens, UniProt P06493); test: CDK1/Cyclin B1 biochemical phosphorylation assay (Caliper mobility shift); conditions: apparent IC50; 1.0 mM ATP or ATP Km; 1.5 nM enzyme; 25° C.
T1 construct: GST
T1 sequence (P06493 whole entry): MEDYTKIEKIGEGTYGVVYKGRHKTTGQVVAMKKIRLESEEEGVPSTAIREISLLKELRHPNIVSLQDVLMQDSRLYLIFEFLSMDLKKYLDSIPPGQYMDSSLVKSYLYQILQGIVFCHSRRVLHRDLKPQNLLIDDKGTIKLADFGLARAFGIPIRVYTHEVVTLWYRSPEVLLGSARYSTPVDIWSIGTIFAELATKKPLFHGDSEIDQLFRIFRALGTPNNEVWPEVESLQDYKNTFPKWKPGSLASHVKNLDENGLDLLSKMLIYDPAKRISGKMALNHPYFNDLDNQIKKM
T1 sequence (P14635 whole entry partner): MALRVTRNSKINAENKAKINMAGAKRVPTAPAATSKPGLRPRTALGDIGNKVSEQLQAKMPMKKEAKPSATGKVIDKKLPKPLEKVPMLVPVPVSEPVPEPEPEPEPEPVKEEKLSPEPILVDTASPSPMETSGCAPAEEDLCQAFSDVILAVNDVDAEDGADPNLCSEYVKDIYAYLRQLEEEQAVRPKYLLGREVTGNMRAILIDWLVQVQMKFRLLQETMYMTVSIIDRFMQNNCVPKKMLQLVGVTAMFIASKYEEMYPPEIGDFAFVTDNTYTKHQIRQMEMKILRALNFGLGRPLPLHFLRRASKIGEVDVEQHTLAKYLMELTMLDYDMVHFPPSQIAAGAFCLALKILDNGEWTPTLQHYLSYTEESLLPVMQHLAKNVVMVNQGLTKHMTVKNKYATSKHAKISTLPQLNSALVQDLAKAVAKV
Description: as §1, §2

IC50 (CDK2/Cyclin E) [nM] | IC50 (CDK1/Cyclin B1, GST-tag) [nM] | Structure (SMILES)
≤ 10 | < 100 | FC[C@@H](C1CCOCC1)n1ncc2ncc(Nc3cc(OC(F)F)[nH]n3)nc21 (single isomer, unassigned) [Example 31]
20 to 30 | ≥ 500 | COc1cc(Nc2cnc3cnn(C(C)c4cccnn4)c3n2)n[nH]1 (single isomer, unassigned) [Example 32, (S)—N-(5-methoxy-1H-pyrazol-3-yl)-1-(1-(pyridazin-3-yl)ethyl)-1H-pyrazolo[3,4-b]pyrazin-6-amine or (R)—N-(5-methoxy-1H-pyrazol-3-yl)-1-(1-(pyridazin-3-yl)ethyl)-1H-pyrazolo[3,4-b]pyrazin-6-amine]
≤ 10 | 100 to 500 | COc1cc(Nc2cnc3cnn(C(C)c4cccnn4)c3n2)n[nH]1 (single isomer, unassigned) [Example 33, (R)—N-(5-methoxy-1H-pyrazol-3-yl)-1-(1-(pyridazin-3-yl)ethyl)-1H-pyrazolo[3,4-b]pyrazin-6-amine or (S)—N-(5-methoxy-1H-pyrazol-3-yl)-1-(1-(pyridazin-3-yl)ethyl)-1H-pyrazolo[3,4-b]pyrazin-6-amine]
≤ 10 | ≥ 500 | FC(F)Oc1cc(Nc2cnc3cnn(C[C@H]4CCCOC4)c3n2)n[nH]1 (single isomer, unassigned) [Example 141, (R)-N-(5-(difluoromethoxy)-1H-pyrazol-3-yl)-1-((tetrahydro-2H-pyran-3-yl)methyl)-1H-pyrazolo[3,4-b]pyrazin-6-amine or (S)-N-(5-(difluoromethoxy)-1H-pyrazol-3-yl)-1-((tetrahydro-2H-pyran-3-yl)methyl)-1H-pyrazolo[3,4-b]pyrazin-6-amine]
≤ 10 | 100 to 500 | FC(F)Oc1cc(Nc2cnc3cnn(C[C@H]4CCCOC4)c3n2)n[nH]1 (single isomer, unassigned) [Example 142, (S)-N-(5-(difluoromethoxy)-1H-pyrazol-3-yl)-1-((tetrahydro-2H-pyran-3-yl)methyl)-1H-pyrazolo[3,4-b]pyrazin-6-amine or (R)-N-(5-(difluoromethoxy)-1H-pyrazol-3-yl)-1-((tetrahydro-2H-pyran-3-yl)methyl)-1H-pyrazolo[3,4-b]pyrazin-6-amine]
10 to 20 | ≥ 500 | FC(F)Oc1cc(Nc2cnc3cnn(C[C@H]4CCOC4)c3n2)n[nH]1 (single isomer, unassigned) [Example 143, (R)-N-(5-(difluoromethoxy)-1H-pyrazol-3-yl)-1-((tetrahydrofuran-3-yl)methyl)-1H-pyrazolo[3,4-b]pyrazin-6-amine or (S)-N-(5-(difluoromethoxy)-1H-pyrazol-3-yl)-1-((tetrahydrofuran-3-yl)methyl)-1H-pyrazolo[3,4-b]pyrazin-6-amine]
≤ 10 | < 100 | FC(F)Oc1cc(Nc2cnc3cnn(C[C@H]4CCOC4)c3n2)n[nH]1 (single isomer, unassigned) [Example 144, (S)-N-(5-(difluoromethoxy)-1H-pyrazol-3-yl)-1-((tetrahydrofuran-3-yl)methyl)-1H-pyrazolo[3,4-b]pyrazin-6-amine or (R)-N-(5-(difluoromethoxy)-1H-pyrazol-3-yl)-1-((tetrahydrofuran-3-yl)methyl)-1H-pyrazolo[3,4-b]pyrazin-6-amine]
> 100 | ≥ 500 | O[C@H]1C[C@H](n2ncc3ncc(Nc4cc(OC(F)F)[nH]n4)nc32)C1 (single isomer, unassigned) [Example 145, (1r,3r)-3-(6-((5-(difluoromethoxy)-1H-pyrazol-3-yl)amino)-1H-pyrazolo[3,4-b]pyrazin-1-yl)cyclobutan-1-ol or (1s,3s)-3-(6-((5-(difluoromethoxy)-1H-pyrazol-3-yl)amino)-1H-pyrazolo[3,4-b]pyrazin-1-yl)cyclobutan-1-ol]
20 to 30 | ≥ 500 | O[C@H]1C[C@H](n2ncc3ncc(Nc4cc(OC(F)F)[nH]n4)nc32)C1 (single isomer, unassigned) [Example 146, (1s,3s)-3-(6-((5-(difluoromethoxy)-1H-pyrazol-3-yl)amino)-1H-pyrazolo[3,4-b]pyrazin-1-yl)cyclobutan-1-ol or (1r,3r)-3-(6-((5-(difluoromethoxy)-1H-pyrazol-3-yl)amino)-1H-pyrazolo[3,4-b]pyrazin-1-yl)cyclobutan-1-ol]
≤ 10 | ≥ 500 | FC(F)Oc1cc(Nc2cnc3cnn([C@@H](c4cccnc4)C4CC4)c3n2)n[nH]1 (single isomer, unassigned) [Example 147, (R)-1-(cyclopropyl(pyridin-3-yl)methyl)-N-(5-(difluoromethoxy)-1H-pyrazol-3-yl)-1H-pyrazolo[3,4-b]pyrazin-6-amine or (S)-1-(cyclopropyl(pyridin-3-yl)methyl)-N-(5-(difluoromethoxy)-1H-pyrazol-3-yl)-1H-pyrazolo[3,4-b]pyrazin-6-amine]
≤ 10 | ≥ 500 | FC(F)Oc1cc(Nc2cnc3cnn([C@@H](c4cccnc4)C4CC4)c3n2)n[nH]1 (single isomer, unassigned) [Example 148, (S)-1-(cyclopropyl(pyridin-3-yl)methyl)-N-(5-(difluoromethoxy)-1H-pyrazol-3-yl)-1H-pyrazolo[3,4-b]pyrazin-6-amine or (R)-1-(cyclopropyl(pyridin-3-yl)methyl)-N-(5-(difluoromethoxy)-1H-pyrazol-3-yl)-1H-pyrazolo[3,4-b]pyrazin-6-amine]
30 to 100 | ≥ 500 | FC(F)Oc1cc(Nc2cnc3cnn([C@H](c4ccccn4)C(F)F)c3n2)n[nH]1 (single isomer, unassigned) [Example 149, (R)-1-(2,2-difluoro-1-(pyridin-2-yl)ethyl)-N-(5-(difluoromethoxy)-1H-pyrazol-3-yl)-1H-pyrazolo[3,4-b]pyrazin-6-amine or (S)-1-(2,2-difluoro-1-(pyridin-2-yl)ethyl)-N-(5-(difluoromethoxy)-1H-pyrazol-3-yl)-1H-pyrazolo[3,4-b]pyrazin-6-amine]
10 to 20 | ≥ 500 | FC(F)Oc1cc(Nc2cnc3cnn([C@H](c4ccccn4)C(F)F)c3n2)n[nH]1 (single isomer, unassigned) [Example 150, (S)-1-(2,2-difluoro-1-(pyridin-2-yl)ethyl)-N-(5-(difluoromethoxy)-1H-pyrazol-3-yl)-1H-pyrazolo[3,4-b]pyrazin-6-amine or (R)-1-(2,2-difluoro-1-(pyridin-2-yl)ethyl)-N-(5-(difluoromethoxy)-1H-pyrazol-3-yl)-1H-pyrazolo[3,4-b]pyrazin-6-amine]

Structure (SMILES) | IC50 (CDK2/Cyclin E) [nM] | IC50 (CDK1/Cyclin B1, GST-tag) [nM]
FC(F)Oc1cc(Nc2cnc3cnn([C@H](C(F)F)C4CCOCC4)c3n2)n[nH]1 (single isomer, unassigned) [Example 28, (S)-1-(2,2-difluoro-1-(tetrahydro-2H-pyran-4-yl)ethyl)-N-(5-(difluoromethoxy)-1H-pyrazol-3-yl)-1H-pyrazolo[3,4-b]pyrazin-6-amine or (R)-1-(2,2-difluoro-1-(tetrahydro-2H-pyran-4-yl)ethyl)-N-(5-(difluoromethoxy)-1H-pyrazol-3-yl)-1H-pyrazolo[3,4-b]pyrazin-6-amine] | 20 to 30 | ≥ 500
FC(F)Oc1cc(Nc2cnc3cnn([C@@H](C(F)F)C4CCOCC4)c3n2)n[nH]1 (single isomer, unassigned) [Example 29, (R)-1-(2,2-difluoro-1-(tetrahydro-2H-pyran-4-yl)ethyl)-N-(5-(difluoromethoxy)-1H-pyrazol-3-yl)-1H-pyrazolo[3,4-b]pyrazin-6-amine or (S)-1-(2,2-difluoro-1-(tetrahydro-2H-pyran-4-yl)ethyl)-N-(5-(difluoromethoxy)-1H-pyrazol-3-yl)-1H-pyrazolo[3,4-b]pyrazin-6-amine] | ≤ 10 | ≥ 500
FC[C@@H](c1ccccc1)n1ncc2ncc(Nc3cc(OC(F)F)[nH]n3)nc21 (single isomer, unassigned) [Example 89, (R)-N-(5-(difluoromethoxy)-1H-pyrazol-3-yl)-1-(2-fluoro-1-phenylethyl)-1H-pyrazolo[3,4-b]pyrazin-6-amine or (S)-N-(5-(difluoromethoxy)-1H-pyrazol-3-yl)-1-(2-fluoro-1-phenylethyl)-1H-pyrazolo[3,4-b]pyrazin-6-amine] | ≤ 10 | ≥ 500
FC[C@H](c1ccccc1)n1ncc2ncc(Nc3cc(OC(F)F)[nH]n3)nc21 (single isomer, unassigned) [Example 90, (S)-N-(5-(difluoromethoxy)-1H-pyrazol-3-yl)-1-(2-fluoro-1-phenylethyl)-1H-pyrazolo[3,4-b]pyrazin-6-amine or (R)-N-(5-(difluoromethoxy)-1H-pyrazol-3-yl)-1-(2-fluoro-1-phenylethyl)-1H-pyrazolo[3,4-b]pyrazin-6-amine] | 30 to 100 | ≥ 500
